# Measurements published in PMC10726354, “Design, Synthesis, and Biological Evaluation of Small-Molecule-Based Radioligands with Improved Pharmacokinetic Properties for Imaging of Programmed Death Ligand 1” (Journal of Medicinal Chemistry, 2023).
# Target: T1, PD-L1 (Homo sapiens, UniProt Q9NZQ7)
# T1 construct: expressed in transfected cells; host or cells: PC3 cells (human prostate carcinoma), stably transduced
# Test: Saturation binding assay on live PC3 PD-L1 overexpressing cells
# Procedure: For assessing the binding affinity of compounds [^64Cu]Cu-1–6, PC3 cells transduced with PD-L1 were used. Dissociation constants in equilibrium (KD) and maximum number of binding sites (Bmax) were determined in a saturation binding assay. The assays were performed with the addition of 2.5% bovine serum albumin (BSA) in the medium to prevent unspecific binding to plastic wells, as reported previously for our first radioligands.[1]
# For saturation binding, cells were trypsinized (0.05% Trypsin–EDTA, Gibco, USA), counted, and diluted to ∼160,000 cells/mL. 0.25 mL of the cell solution was then added to each well of a 48-well plate (Falcon Multiwell #353078) and grown for at least 2 days.
# To determine the affinity (KD) and the number of binding sites (Bmax) of the herein described PD-L1 small-molecule ligands, saturation binding was performed in at least three independent experiments, as described before.[45] Cells were brought to room temperature followed by cooling on ice (each 15 min). The medium was removed and replaced with 200 μL assay buffer [PBS + 2.5% (w/v) BSA] for total binding (TB) conditions or assay buffer containing 300 μM BMS-1166 (in DMSO, resulting in 0.03% v/v) for the assessment NSB. After 15 min preincubation, 200 μL of each of the eight serial 1:1 dilutions (500 to 3.91 nM) of the respective radioligand was added (in triplicate). Cells were then incubated for 90 min at 4 °C, washed (3 × 1 min), and lysed in 500 μL of 0.1 M NaOH + 1% SDS. Radioactivity of the lysate was measured and decay corrected to a reference time (end of radiolabeling). An additional plate was subjected to the same conditions (preincubation, incubation, and washing) using PBS without BSA for each experiment, and the protein content of these lysates was determined by BCA assay. From CPM measurements, final values (pmol/mg protein) were calculated using the mean protein content and molar activity.
# Processed data were then subjected to nonlinear iterative curve fitting (GraphPad Prism 9) to yield Bmax (in pmol/mg protein) and KD (in nM).
# T1 sequence (Q9NZQ7 19-290): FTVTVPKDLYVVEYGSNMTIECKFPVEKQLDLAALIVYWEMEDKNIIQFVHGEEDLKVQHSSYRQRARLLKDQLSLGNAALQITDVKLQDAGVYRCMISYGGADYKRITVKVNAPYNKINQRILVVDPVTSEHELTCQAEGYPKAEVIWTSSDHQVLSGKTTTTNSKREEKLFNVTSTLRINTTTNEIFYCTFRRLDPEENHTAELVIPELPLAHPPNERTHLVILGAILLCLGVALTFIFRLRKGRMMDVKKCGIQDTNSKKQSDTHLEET
structure (smiles),measurement,value
"Cc1c(COc2cc(OCc3cccc(C#N)c3)c(CN3C[C@H](O)C[C@@H]3C(=O)O)cc2Cl)cccc1-c1ccc2c(c1)OCCO2 [BMS-1166, reference compound]",binding blocked in the saturation assay,~80%
